{"source": "patent US6440391B1", "about": "“Management of snoring by oral administration of dimethyl sulfone” (Elstan Corporation, priority 2000, dated 2002)", "key": {"snoring [1]": {"test_system": "snoring", "details": "cited from earlier work"}, "snoring [2]": {"test_system": "snoring", "experiment": "Oral spray of methylsulfonylmethane solution onto the oropharynx before sleep; snoring observed by subject's mate", "format": "in vivo, human", "parameters": "key to Results (relief of snoring): FR = Full Relief; MR = Moderate Relief; NR = No Relief", "details": "for Results (relief of snoring): one line per subject", "method": "The initial experiments to determine effectiveness of the instillation of methylsulfonylmethane as a snoring reduction agent was carried out with an initial sampling of 10 individuals.\nIn each of the above cases, the subject was instructed to spray the solution containing the methylsulfonylmethane four (4) times into the oropharynx approximately fifteen (15) minutes to thirty (30) minutes prior to retiring for sleep. Each spray contained about 0.2 ml; to 0.25 ml of the solution. Thus, the total amount instilled is about 0.8 ml to […]. The observation of the presence or absence of snoring was made by the subject's mate. The observing party was not told that the subject was employing […] methylsulfonylmethane. As noted in Table I, 70% of the subject's mates reported the lessening or absence of snoring while 30% reported no benefit from the oral administration of the methylsulfonylmethane.\nThe seven patients who reported full relief or moderate relief where thereafter provided with a saline spray as a placebo without their knowledge. In each case the snoring returned. They were again given the methylsulfonylmethane spray and 70% again achieve full relief.\nA second sampling of subjects was undertaken wherein the weight percentage of methylsulfonylmethane in water was varied at 1%, 5% and 10%.\nBy warming the solution of water and methylsulfonylmethane to no more than about 37° C. (98.6° F.), a greater concentration of methylsulfonylmethane will go into solution."}, "[3]": {"details": "15% MSM, oral spray, 10 individuals (Table I)"}}, "note": "“And” between values parts separate entries of the source, which are not always exact repeats. Identical values can stand only once.", "data": [{"smiles": "CS(C)(=O)=O", "note": "[MSM, methylsulfonylmethane]", "values": [{"measurement": "effectiveness of intranasal treatment", "setting": "snoring [1]; 1% to 20% by weight, drops into the nasal cavity", "value": "highly effective"}, {"measurement": "time interval of reduced snoring", "setting": "snoring [1]; nasal administration saturating mucous membranes of the nasal passageways", "value": "8 to 12", "unit": "h"}, {"measurement": "local tolerability on nasal instillation", "setting": "snoring [1]; nasal route, some individuals", "value": "slight burning sensation"}, {"measurement": "Results (relief of snoring)", "setting": "snoring [2]; 1% MSM by weight in water, oral", "value": "FR and NR (3×)"}, {"measurement": "relief of snoring at lowest concentration", "setting": "snoring [2]; 1% by weight in water, oral, Table II", "value": "the relief was not reported to be as dramatic as at higher concentrations"}, {"measurement": "effectiveness of concentration range against snoring", "setting": "snoring [2]; 1%-20% by weight in water, oral, Tables I-III", "value": "effective"}, {"measurement": "Results (relief of snoring)", "setting": "snoring [2]; 5% MSM by weight in water, oral", "value": "NR (2×) and FR (2×)"}, {"measurement": "Results (relief of snoring)", "setting": "snoring [2]; 10% MSM by weight in water, oral", "value": "FR (3×) and NR"}, {"measurement": "Results (relief of snoring)", "setting": "snoring [2]; 15% MSM by weight, oral spray 4 times (0.8-1.2 ml) 15-30 min before sleep", "value": "FR (6×) and NR (3×) and MR"}, {"measurement": "subject's mates reporting lessening or absence of snoring", "setting": "snoring [2]; [3]", "value": 70, "unit": "%"}, {"measurement": "subject's mates reporting no benefit", "setting": "snoring [2]; [3]", "value": 30, "unit": "%"}, {"measurement": "Results (relief of snoring)", "setting": "snoring [2]; 20% MSM by weight in water, solution warmed to no more than about 37° C., oral", "value": "FR"}, {"measurement": "patients again achieving full relief when given the spray again", "setting": "snoring [2]; the seven responders, re-given MSM spray after saline placebo (snoring returned on placebo)", "value": 70, "unit": "%"}]}]}
